Measured values taken from patent publication EP4512427A1, “ANTIBODY-DRUG CONJUGATES BASED ON MOLECULAR GLUE DEGRADERS AND USES THEREOF” (Mablink Bioscience, priority 2023, dated 2025).

Legend:
in vitro = settings: PAMPA, pH 7.4
Procedure: Stock solutions of compounds of the invention were prepared in dimethyl sulfoxide (DMSO) to a final concentration of 10 mM. Each stock solution was diluted to 50 µM in pH 7.4 Prisma HT buffer (pION) in the presence of 10% MeOH (v/v). 200 µL were added to each well of the donor plate in quintuplicate. […] The acceptor filter plate was carefully placed on top of the donor plate to form a "sandwich." The sandwich was incubated at 25°C for 5 h, at 300 rpm. UV-vis spectra of the solutions in the blank, reference, acceptor, and donor plates were measured using a Tecan Infinite 200 PRO M Nano Plus microplate reader.

BCRP = molecular target: T1, BCRP (Homo sapiens, UniProt Q9UNQ0); experiment: BCRP efflux substrate assay in MDCK-BCRP; format: in vitro ADME; settings: dog, pH 7.4, MDCK-BCRP
T1 construct: host or cells: MDCK-BCRP (Preadyport)
T1 sequence (Q9UNQ0 1-655): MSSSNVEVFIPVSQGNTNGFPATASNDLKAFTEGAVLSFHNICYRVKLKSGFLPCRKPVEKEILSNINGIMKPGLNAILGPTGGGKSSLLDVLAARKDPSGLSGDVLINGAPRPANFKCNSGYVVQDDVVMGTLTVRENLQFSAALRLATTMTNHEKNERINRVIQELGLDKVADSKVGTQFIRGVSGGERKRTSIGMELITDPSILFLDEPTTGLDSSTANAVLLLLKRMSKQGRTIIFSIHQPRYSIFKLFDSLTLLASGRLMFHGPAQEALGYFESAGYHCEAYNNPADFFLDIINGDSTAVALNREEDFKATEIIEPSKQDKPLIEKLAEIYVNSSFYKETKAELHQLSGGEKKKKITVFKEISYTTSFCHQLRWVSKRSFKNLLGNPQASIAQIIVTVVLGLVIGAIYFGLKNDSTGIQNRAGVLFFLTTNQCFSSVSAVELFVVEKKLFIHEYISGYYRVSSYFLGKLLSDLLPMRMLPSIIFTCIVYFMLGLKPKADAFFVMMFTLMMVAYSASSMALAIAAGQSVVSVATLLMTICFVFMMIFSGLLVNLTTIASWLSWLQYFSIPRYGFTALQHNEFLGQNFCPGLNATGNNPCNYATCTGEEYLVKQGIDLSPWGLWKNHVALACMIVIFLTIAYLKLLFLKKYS
Procedure: MDR1 and BCRP efflux substrate assays were conducted in MDCK-MDR1 and MDCK-BCRP in vitro models (Preadyport™, Solvo Biotech) at Symeres (Nederland). Compound of the invention (donor well concentration of 5µM) were incubated in cell monolayer 24-transwell Preadyport system, using Preadyport recommended pH 7.4 assay buffer (donor and receiver wells). After 60 min of incubation (no shaking), samples are collected and suspended into triple volume of 66% cold acetonitrile. Samples are stored at -20°C until thawed, centrifuged and analyzed by LC-MS. Quinidine was used a positive control for the MDR1 assay, and prazosin was used as a positive control for the BCRP assay. Exatecan was used as a control, known not to be an MDR1 substrate. Residual DMSO content from compounds stock solutions was below 1% (v/v). The assay was performed in duplicate. The quantification of test compounds in donor or receptor compartment is conducted using relative LC/MS peak areas (samples of initial incubation solutions are used as a single point calibrator), without any spiked standard samples. The data is used for estimating apparent permeability (Papp) and calculation of efflux ratio.

CycK mRNA = CycK mRNA by RT-qPCR; format: cell-based, human; settings: JIMT-1 cells, 1µM, 2h
Procedure: 1×10^6 JIMT-1 cells were plated in 3mL of DMEM/FBS 90:10 (v/v) in 6-well plates and incubated overnight. Cells were treated with the compound 2384 of the invention, with CR8 (a known molecular glue degrader that depletes CycK) or with the proteasome inhibitor MG-132 (MedChemExpress, Cat HY-13259) for 2h. RNA was extracted using the QIAamp RNeasy Mini Kit (cat#74106, Qiagen) according to the manufacturer's protocol. Reverse transcription was performed using SuperScripr™ IV reverse transcriptase (cat#LT02241, Invitrogen). Quantitative PCR was performed using a No ROX Sybr Master Mix in the LightCycler 480 Real-Time PCR system (Roche Life Science).
Cyclin K forward ([…]) and reverse ([…]) primers were purchased from Eurogentec. Gene expression was normalized using ribosomal 28S as the housekeeping gene.

N[C@H]1CC[C@H](Nc2nc(NCc3ccc(-c4ccccn4)cc3)n3ncc(Br)c3n2)CC1 [Compound 2384]
Papp at 5 h, 50 µM (in vitro): 84 ×10⁻⁶ cm/s
efflux ratio at 1 h, 5 µM (BCRP; read-out: Efflux ratio B/A): 9.24
Papp A→B at 1 h, 5 µM (BCRP; 5µM, 60 min, read-out: Papp A (donor) to B (acceptor)): 5.49 ×10⁻⁶ cm/s
Papp B→A at 1 h, 5 µM (BCRP; 5µM, 60 min, read-out: Papp B (acceptor) to A (donor)): 50.7 ×10⁻⁶ cm/s
CycK mRNA level (CycK mRNA): not at the CycK mRNA level
